Results published in patent US20240383905A1, “FGFR INHIBITORS AND METHODS OF USE THEREOF” (3H PHARMACEUTICALS CO., LTD., priority 2021, published 2024).

How the values were obtained:
[1] = target: T1, FGFR2 (Homo sapiens, UniProt P21802); assay: FGFR2 Biochemical Caliper Assay (KinEASE-TK kit); details: 0.07 nM FGFR2; compound incubated with protein 10 min, reaction 45 min at RT; read-out: FGFR2 Cliper IC50
T1 construct: purchased Carna 08-134
Description: Compounds of the present invention were tested in a FGFR1, FGFR2, and FGFR3 Biochemical Caliper Assay.
(§1) Enzyme activity was monitored using KinEASE-TK kit (CisBio, Cat.No. 62TK0PEC) according to manufacturer's instructions. […] Final enzyme concentration was 0.2 nM for FGFR1 and FGFR3, 0.07 nM for FGFR2. Compounds were prepared in 10 mM DMSO and serially diluted into 10 concentrations by 3-fold dilution. Prior to the initiation of the reaction by adding TK-substrate/ATP mixture, the compounds were incubated with protein for 10 min at RT. […] Plates were quenched by adding TK-antibody-Cryptate and Sa-XL665 mixture. After 60 min in the stop solution, read the signal on microplate reader (Molecular Devices, i3x), excitation of 320 nm and emission of 615 nm and 665 nm with a […]. IC50 values were calculated using Prism 7 (GraphPad).

[2] = target: T2, FGFR1 (Homo sapiens, UniProt P11362); assay: FGFR1 Biochemical Caliper Assay (KinEASE-TK kit); details: ratio FGFR1/FGFR2 of the biochemical assay
T2 construct: purchased Carna 08-133
T2 sequence (P11362 22-822): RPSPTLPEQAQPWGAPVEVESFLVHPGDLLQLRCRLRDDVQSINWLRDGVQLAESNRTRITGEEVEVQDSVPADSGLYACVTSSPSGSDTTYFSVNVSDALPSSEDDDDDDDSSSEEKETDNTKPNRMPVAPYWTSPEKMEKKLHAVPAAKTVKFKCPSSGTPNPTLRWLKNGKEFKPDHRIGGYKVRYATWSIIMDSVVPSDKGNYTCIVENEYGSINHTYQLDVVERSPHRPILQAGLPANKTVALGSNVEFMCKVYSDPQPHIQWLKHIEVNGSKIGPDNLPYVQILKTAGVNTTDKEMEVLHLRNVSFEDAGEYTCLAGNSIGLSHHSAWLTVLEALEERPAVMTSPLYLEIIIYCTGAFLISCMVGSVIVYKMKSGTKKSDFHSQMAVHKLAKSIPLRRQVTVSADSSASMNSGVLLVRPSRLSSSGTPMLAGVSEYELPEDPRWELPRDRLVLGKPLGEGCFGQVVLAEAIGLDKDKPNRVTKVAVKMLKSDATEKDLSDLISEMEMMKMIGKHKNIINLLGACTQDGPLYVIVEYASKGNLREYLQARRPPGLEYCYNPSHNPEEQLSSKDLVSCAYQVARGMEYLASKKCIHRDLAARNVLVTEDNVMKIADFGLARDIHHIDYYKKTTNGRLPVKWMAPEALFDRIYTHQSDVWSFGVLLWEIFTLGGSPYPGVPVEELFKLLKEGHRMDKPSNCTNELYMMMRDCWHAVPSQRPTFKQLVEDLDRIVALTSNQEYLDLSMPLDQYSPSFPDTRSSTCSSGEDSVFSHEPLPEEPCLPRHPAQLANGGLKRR
Description: as §1, with “Compounds of the present invention were tested in a FGFR1, FGFR2, and FGFR3 Biochemical Caliper Assay. Enzyme” for “Enzyme”

[3] = target: T3, FGFR3 (Homo sapiens, UniProt P22607); assay: FGFR3 Biochemical Caliper Assay (KinEASE-TK kit); details: ratio FGFR3/FGFR2 of the biochemical assay
T3 construct: purchased Carna 08-135
T3 sequence (P22607 23-806): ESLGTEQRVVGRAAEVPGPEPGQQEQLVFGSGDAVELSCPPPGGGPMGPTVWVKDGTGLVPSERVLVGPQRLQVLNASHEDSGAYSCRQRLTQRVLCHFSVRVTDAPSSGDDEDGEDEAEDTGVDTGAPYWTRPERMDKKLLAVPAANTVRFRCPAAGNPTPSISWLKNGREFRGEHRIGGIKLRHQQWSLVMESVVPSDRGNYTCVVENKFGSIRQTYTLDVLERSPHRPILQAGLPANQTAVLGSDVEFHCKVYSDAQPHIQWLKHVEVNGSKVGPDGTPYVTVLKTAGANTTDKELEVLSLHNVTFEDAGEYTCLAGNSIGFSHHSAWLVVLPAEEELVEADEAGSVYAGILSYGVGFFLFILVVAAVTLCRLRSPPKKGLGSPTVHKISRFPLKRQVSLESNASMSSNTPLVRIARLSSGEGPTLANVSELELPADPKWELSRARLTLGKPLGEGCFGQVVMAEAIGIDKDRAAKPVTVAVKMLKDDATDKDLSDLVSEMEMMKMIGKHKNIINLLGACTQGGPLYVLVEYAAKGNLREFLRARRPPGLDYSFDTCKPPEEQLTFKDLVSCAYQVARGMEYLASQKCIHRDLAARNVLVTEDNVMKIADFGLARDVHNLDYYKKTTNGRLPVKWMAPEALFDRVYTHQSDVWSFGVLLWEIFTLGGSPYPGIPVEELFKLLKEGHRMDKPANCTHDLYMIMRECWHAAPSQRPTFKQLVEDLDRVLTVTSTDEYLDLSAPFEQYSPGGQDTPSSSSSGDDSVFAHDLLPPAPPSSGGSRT
Description: as §1, with “Compounds of the present invention were tested in a FGFR1, FGFR2, and FGFR3 Biochemical Caliper Assay. Enzyme” for “Enzyme”

[4] = system: SNU16 cells; assay: SNU16 Cancer Cell Line Proliferation Assay (CellTiter-Glo); format: cell-based; details: Homo sapiens, SNU-16, 72 h
Description: Compounds of the present invention were also tested in a SNU16 Cancer Cell Line Proliferation Assay.
SNU16 cells were plated in 96-well clear bottom/white plate(Costar, Cat.No. 3610) at 5000 cells/well in 100 μl medium. Test compounds were prepared in a 10 mM DMSO stock solution and serially diluted into 9 concentrations by 3-fold dilution. 0.5 μl of each concentration of compound was added into the cell culture plates and DMSO as a control. The plates were incubated for 72 h at 37° C. and 5% CO2 incubator. 50 μl CellTiter-Glo reagent (Promega, G7572) was added into each well and then the plates were shaken gently for 10 min at room temperature. Luminescence was read on microplate reader (Molecular Devices, i3x), IC50 values were calculated using Prism 7 (GraphPad).

T1 sequence (P21802 22-821): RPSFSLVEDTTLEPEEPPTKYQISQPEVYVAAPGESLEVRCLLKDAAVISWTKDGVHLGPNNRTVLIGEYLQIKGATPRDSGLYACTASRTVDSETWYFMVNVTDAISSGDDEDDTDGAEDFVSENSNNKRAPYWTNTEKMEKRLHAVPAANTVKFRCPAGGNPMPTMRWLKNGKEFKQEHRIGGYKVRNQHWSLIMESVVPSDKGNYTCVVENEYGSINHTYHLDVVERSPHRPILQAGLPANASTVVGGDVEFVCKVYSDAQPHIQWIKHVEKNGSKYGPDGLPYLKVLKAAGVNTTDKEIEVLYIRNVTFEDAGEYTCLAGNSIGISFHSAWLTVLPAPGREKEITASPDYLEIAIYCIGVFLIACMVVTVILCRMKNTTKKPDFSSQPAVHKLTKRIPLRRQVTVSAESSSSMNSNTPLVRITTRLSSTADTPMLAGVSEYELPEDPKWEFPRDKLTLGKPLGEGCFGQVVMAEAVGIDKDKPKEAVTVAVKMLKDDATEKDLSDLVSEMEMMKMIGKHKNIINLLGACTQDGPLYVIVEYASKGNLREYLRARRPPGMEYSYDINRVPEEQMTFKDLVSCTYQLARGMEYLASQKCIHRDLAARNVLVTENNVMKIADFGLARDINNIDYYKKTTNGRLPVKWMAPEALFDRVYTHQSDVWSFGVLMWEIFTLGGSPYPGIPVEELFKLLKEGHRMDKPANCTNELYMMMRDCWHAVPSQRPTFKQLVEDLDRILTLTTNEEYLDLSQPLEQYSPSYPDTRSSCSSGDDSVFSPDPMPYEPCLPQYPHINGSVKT

| IC50 [1] [nM] | IC50 [4] [nM] | SMILES | Selectivity FGFR1/FGFR2 [2] | Selectivity FGFR3/FGFR2 [3] |
| --- | --- | --- | --- | --- |
| < 5 | ≤ 10 | C=CC(=O)Nc1ccc(-c2c(-c3ccc(C(=O)NC4CCC4)c(OC)c3)c3c(N)ncc(C#N)c3n2CCOC)cc1 [Compound 59, 4-(2-(4-acrylamidophenyl)-4-amino-7-cyano-1-(2-methoxyethyl)-1H-pyrrolo[3,2-c]pyridin-3-yl)-N-cyclobutyl-2-methoxybenzamide] | A (Selectivity of FGFR1/FGFR2 less than 500 but greater than or equal to 300) | A (Selectivity of FGFR3/FGFR2 less than 150 but greater than or equal to 100) |
| 5 to 10 | ≤ 10 | C=CC(=O)Nc1ccc(-c2nn3ncnc(N)c3c2-c2ccc(C(=O)NCC)c(OC)c2)cc1 [Compound 60, 4-(6-(4-acrylamidophenyl)-4-aminopyrazolo[5,1-f] [1,2,4]triazin-5-yl)-N-ethyl-2-methoxybenzamide] | A+ (Selectivity of FGFR1/FGFR2 greater or equal to 500) | A (Selectivity of FGFR3/FGFR2 less than 150 but greater than or equal to 100) |
| < 5 | ≤ 10 | C=CC(=O)Nc1ccc(-c2c(-c3ccc(C(=O)NC4CCC4)cc3)c3c(N)ncc(C#N)c3n2C)cc1 [Compound 65, 4-(2-(4-acrylamidophenyl)-4-amino-7-cyano-1-methyl-1H-pyrrolo[3,2-c]pyridin-3-yl)-N-cyclobutylbenzamide] | A (Selectivity of FGFR1/FGFR2 less than 500 but greater than or equal to 300) | A+ (Selectivity of FGFR3/FGFR2 greater or equal to 150) |
| < 5 | ≤ 10 | C=CC(=O)Nc1ccc(-c2c(-c3ccc(Oc4nccc(C)n4)cc3)c3c(N)ncc(C#N)c3n2C)cc1 [Compound 69, N-(4-(4-amino-7-cyano-1-methyl-3-(4-((4-methylpyrimidin-2-yl)oxy)phenyl)-1H-pyrrolo[3,2-c]pyridin-2-yl)phenyl)acrylamide] | A (Selectivity of FGFR1/FGFR2 less than 500 but greater than or equal to 300) | B (Selectivity of FGFR3/FGFR2 less than 100 but greater than or equal to 25) |
| > 10 | ≤ 10 | C=CC(=O)Nc1ccc(-c2nn3ncnc(N)c3c2-c2ccc(C(=O)NC3CCC3)c(C)c2)cc1 [Compound 74, 4-(6-(4-acrylamidophenyl)-4-aminopyrazolo[5,1-f][1,2,4]triazin-5-yl)-N-cyclobutyl-2-methylbenzamide] | C (Selectivity of FGFR1/FGFR2 less than 200 but greater than or equal to 100) | A+ (Selectivity of FGFR3/FGFR2 greater or equal to 150) |
| < 5 | ≤ 10 | C=CC(=O)Nc1ccc(-c2nn3ncnc(N)c3c2-c2ccc(C(=O)NCC(C)C)c(OC)c2)cc1 [Compound 81, 4-(6-(4-acrylamidophenyl)-4-aminopyrazolo[5,1-f] [1,2,4]triazin-5-yl)-N-isobutyl-2-methoxybenzamide] | A+ (Selectivity of FGFR1/FGFR2 greater or equal to 500) | A+ (Selectivity of FGFR3/FGFR2 greater or equal to 150) |
| < 5 | ≤ 10 | C=CC(=O)Nc1ccc(-c2nn3ncnc(N)c3c2-c2ccc(C(=O)NCC(F)(F)F)c(OC)c2)c(OC)c1 [Compound 85, 4-(6-(4-acrylamido-2-methoxyphenyl)-4-aminopyrazolo[5,1-f] [1,2,4]triazin-5-yl)-2-methoxy-N-(2,2,2-trifluoroethyl)benzamide] | A+ (Selectivity of FGFR1/FGFR2 greater or equal to 500) | A+ (Selectivity of FGFR3/FGFR2 greater or equal to 150) |
| < 5 | ≤ 10 | C=CC(=O)Nc1ccc(-c2nn3ncnc(N)c3c2-c2ccc(C(=O)NCC(F)(F)F)c(OC)c2)c(F)c1 [Compound 86, 4-(6-(4-acrylamido-2-fluorophenyl)-4-aminopyrazolo[5,1-f] [1,2,4]triazin-5-yl)-2-methoxy-N-(2,2,2-trifluoroethyl)benzamide] | A+ (Selectivity of FGFR1/FGFR2 greater or equal to 500) | B (Selectivity of FGFR3/FGFR2 less than 100 but greater than or equal to 25) |
| < 5 | ≤ 10 | C=CC(=O)Nc1ccc(-c2nn3ncnc(N)c3c2-c2ccc(C(=O)NC3CC3)c(OC)c2)cc1 [Compound 89, 4-(6-(4-acrylamidophenyl)-4-aminopyrazolo[5,1-f] [1,2,4]triazin-5-yl)-N-cyclopropyl-2-methoxybenzamide] | A+ (Selectivity of FGFR1/FGFR2 greater or equal to 500) | A+ (Selectivity of FGFR3/FGFR2 greater or equal to 150) |
| < 5 | 10 to 50 | C=CC(=O)Nc1ccc(-c2nn3ncnc(N)c3c2-c2ccc(C(=O)NCC(F)(F)F)c(OC)c2)cn1 [Compound 90, 4-(6-(6-acrylamidopyridin-3-yl)-4-aminopyrazolo[5,1-f] [1,2,4]triazin-5-yl)-2-methoxy-N-(2,2,2-trifluoroethyl)benzamide] | A (Selectivity of FGFR1/FGFR2 less than 500 but greater than or equal to 300) | B (Selectivity of FGFR3/FGFR2 less than 100 but greater than or equal to 25) |
| > 10 | ≤ 10 | C=C(F)C(=O)Nc1ccc(-c2nn3ncnc(N)c3c2-c2ccc(C(=O)NC3CCCC3)c(OC)c2)cc1 [Compound 93, 4-(4-amino-6-(4-(2-fluoroacrylamido)phe-nyl)pyrazolo[5,1-f] [1,2,4]triazin-5-yl)-N-cyclopentyl-2-methoxybenzamide] | A+ (Selectivity of FGFR1/FGFR2 greater or equal to 500) | A+ (Selectivity of FGFR3/FGFR2 greater or equal to 150) |
| > 10 | ≤ 10 | C=C(F)C(=O)Nc1ccc(-c2nn3ncnc(N)c3c2-c2ccc(C(=O)NC3CCC3)c(OC)c2)cc1 [Compound 95, 4-(4-amino-6-(4-(2-fluoroacrylamido)phe-nyl)pyrazolo[5,1-f][1,2,4]triazin-5-yl)-N-cyclobutyl-2-methoxybenzamide] | A+ (Selectivity of FGFR1/FGFR2 greater or equal to 500) | A+ (Selectivity of FGFR3/FGFR2 greater or equal to 150) |
| 5 to 10 | ≤ 10 | C=C(F)C(=O)Nc1ccc(-c2c(-c3ccc(C(=O)NC4CCC4)cc3)c3c(N)ncc(C#N)c3n2C)cc1 [Compound 97, 4-(4-amino-7-cyano-2-(4-(2-fluoroacrylamido)phe-nyl)-1-methyl-1H-pyrrolo[3,2-c]pyridin-3-yl)-N-cyclobutylbenzamide] | A+ (Selectivity of FGFR1/FGFR2 greater or equal to 500) | A+ (Selectivity of FGFR3/FGFR2 greater or equal to 150) |
| < 5 | ≤ 10 | C=CC(=O)Nc1ccc(-c2nn3ncnc(N)c3c2-c2ccc(C(=O)NC3CC(F)(F)C3)c(OC)c2)cc1 [Compound 98, 4-(6-(4-acrylamidophenyl)-4-aminopyrazolo[5,1-f] [1,2,4]triazin-5-yl)-N-(3,3-difluorocyclobutyl)-2-methoxybenzamide] | A+ (Selectivity of FGFR1/FGFR2 greater or equal to 500) | A+ (Selectivity of FGFR3/FGFR2 greater or equal to 150) |
| < 5 | ≤ 10 | C=C(F)C(=O)Nc1ccc(-c2nn3ncnc(N)c3c2-c2ccc(C(=O)NCC(F)(F)F)c(OC)c2)c(F)c1 [Compound 100, 4-(4-amino-6-(2-fluoro-4-(2-fluoroacrylamido)phenyl)pyrazolo[5,1-f][1,2,4]triazin-5-yl)-2-methoxy-N-(2,2,2-trifluoroethyl)benzamide] | A+ (Selectivity of FGFR1/FGFR2 greater or equal to 500) | A+ (Selectivity of FGFR3/FGFR2 greater or equal to 150) |
